According to PubChem BioAssay (NCI):
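Following 48 hours of exposure in 96-well plates, responses at five concentrations were used to interpolate endpoints linearly. TGI: concentration producing complete growth inhibition.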

Assays:
Assay in all cases: NCI anticancer screen, dose series, 48 h
M19-MEL melanoma = tested on: M19-MEL melanoma
SN12K1 renal = tested on: SN12K1 renal
KM20L2 colon = tested on: KM20L2 colon
DMS 114 small cell lung = tested on: DMS 114 small cell lung

Measured: TGI

CCOC(=O)c1cc(Cl)ccc1OC(N)=O
> 100 µM: all assays above
